Results reported in patent US5508275A, “Lipid-selective antioxidants and their preparation and use” (Hoechst Aktiengesellschaft, priority 1990, dated 1996).
Where a name gives a salt, the structure may show the parent alone.

Experiments:
[1] = Solubility in water and olive oil (Method III)
Procedure: a) Preparation of olive oil or aqueous solutions. 1 ml of olive oil or I ml of double-distilled water (or dilute NaOH pH=7.6) was added to 1 mg or 10 mg or 50 mg of the respective compound at 37° C. and it was checked whether a clear solution was obtained. The optionally centrifuged and decanted olive oil solutions were heated for 5 minutes using a Bunsen burner and the degree of browning of the olive oil was determined. […] Samples having poor protective action are given a (*) in the table (see below).

[2] = test system: thrombus formation in rats; assay: Laser-induced thrombosis in rats in vivo (Method VIII); parameters: species or system rat; details: 30 mg/kg oral, laser induction 60 min after administration
Procedure: The experimental procedure was carried out in every detail as described in U.S. Pat. No. 4,694,024. Laser induction took place 60 min after oral administration of the antioxidants.

[3] = Use as an additive in frying fat: color change of butter (Method II); details: 1% (weight/weight) in butter
Procedure: Use as an additive in frying fat: Samples of commercially available German non-blended butter were melted and in each case 1% (weight/weight) of BHT (=butylated hydroxytoluene) or 2,6-di-tert.-butyl-4-(7-nonynoyl)-phenol [=compound according to Example 17] or ethyl 2-(3,5-di-tert.-butyl-4-hydroxybenzyl)-3-oxo-docosanoate [=compound according to Example 18] or N-octadecyl-DL-α-lipoic acid amide [=compound according to Example 52] was added and the mixture was used in the customary manner as frying fat. […] The better protective action of the […] probably comes about as a result of their lipophilic side chains and, therefore, improved lipophilic interaction. The advantageous action of N-octadecyl-DL-α-lipoic acid amide is particularly surprising, although this preparation has no recognizable antioxidative component.

[4] = olive oil, organic solvent or mixture

| solubility [1, 4] | solubility ([1]; water) | Compound | Reduction of thrombus formation [2] | color change of frying fat after the frying procedure [3] | suitability for use in aqueous oil emulsions owing to solubility properties [1] |
| --- | --- | --- | --- | --- | --- |
| < 100 µg/mL | > 10000 µg/mL | O=C(O)CCCC[C@@H](S)CCS (racemic) [Dihydrolipoic acid, Na salt, Dihydrolipoic acid, reference compound] |  |  |  |
| < 100 µg/mL | > 10000 µg/mL | O=C(O)C(S)C(S)C(=O)O (centres unmarked) [2,3-Mercaptosuccinic acid, reference compound] |  |  |  |
|  |  | CC(C)(Sc1cc(C(C)(C)C)c(O)c(C(C)(C)C)c1)Sc1cc(C(C)(C)C)c(O)c(C(C)(C)C)c1 [4,4'-(Isopropylidenedithio)bis[2,6-di-tert.-butylphenol], reference compound] | 6% |  |  |
| < 100 µg/mL | > 10000 µg/mL | Cc1c(C)c2c(c(C)c1O)CCC(C)(C(=O)O)O2 (centres unmarked) [6-Hydroxy-2,5,7,8-tetramethylchroman-2-carboxylic acid, reference compound] |  |  |  |
| > 10000 µg/mL | < 100 µg/mL | Cc1cc(C(C)(C)C)c(O)c(C(C)(C)C)c1 [BHT, butylated hydroxytoluene, reference compound] |  | transformed into a viscous, dark brown material |  |
| < 100 µg/mL | > 10000 µg/mL | O[C@H](CS)[C@@H](O)CS [Dithioerythritol, reference compound] |  |  |  |
| > 10000 µg/mL | > 100 µg/mL | CCCCCCNC(=O)C1(C)CCc2c(C)c(O)c(C)c(C)c2O1 (centres unmarked) [Example 4] |  |  |  |
| > 10000 µg/mL | < 100 µg/mL | CCCCCCC(=O)NCCCNC(=O)C1(C)CCc2c(C)c(O)c(C)c(C)c2O1 (centres unmarked) [Example 5] |  |  |  |
| > 10000 µg/mL | < 100 µg/mL | CCCCCCCCCCCCCCCCCCNC(=O)C1(C)CCc2c(C)c(O)c(C)c(C)c2O1 (centres unmarked) [Example 6] |  |  |  |
| > 10000 µg/mL | < 100 µg/mL | CCCCCCCCCCCCCCCC(=O)NCCCNC(=O)C1(C)CCc2c(C)c(O)c(C)c(C)c2O1 (centres unmarked) [Example 7] |  |  |  |
| > 10000 µg/mL | < 100 µg/mL | Cc1c(C)c2c(c(C)c1O)CCC(C)(C(=O)NC1CCCCC1)O2 (centres unmarked) [Example 8] |  |  |  |
| > 50000 µg/mL | < 100 µg/mL | CCCCCCC#CC(=O)c1cc(C(C)(C)C)c(O)c(C(C)(C)C)c1 [Example 17] |  | substantially lower color change |  |
| > 50000 µg/mL | < 100 µg/mL | CCCCCCCCCCCCCCCCCCCC(=O)C(Cc1cc(C(C)(C)C)c(O)c(C(C)(C)C)c1)C(=O)OCC (centres unmarked) [Example 18, ethyl 2-(3,5-di-tert.-butyl-4-hydroxybenzyl)-3-oxo-docosanoate] |  | substantially lower color change |  |
| > 50000 µg/mL | < 100 µg/mL | CC(C)(C)c1cc(C2SCCC(CCCCC(=O)O)S2)cc(C(C)(C)C)c1O (centres unmarked) [Example 19] |  |  |  |
| > 50000 µg/mL | < 100 µg/mL | CC(C)(C)OC(=O)CCCCC(CCSCc1cc(C(C)(C)C)c(O)c(C(C)(C)C)c1)SCc1cc(C(C)(C)C)c(O)c(C(C)(C)C)c1 (centres unmarked) [Example 20] |  |  |  |
| > 50000 µg/mL | < 100 µg/mL | CCCCCCCCCCCCCCCCCCOCC(O)COCc1cc(C(C)(C)C)c(O)c(C(C)(C)C)c1 (centres unmarked) [Example 21] |  |  |  |
| > 50000 µg/mL | < 100 µg/mL | CCCCCCCCCCCCCCCCCCOCC(CO)OC(=O)c1cc(C(C)(C)C)c(O)c(C(C)(C)C)c1 (centres unmarked) [Example 22] |  |  |  |
| > 50000 µg/mL | < 100 µg/mL | CCCCCCCCCCCCCCCCCCOCC(O)COC(=O)c1cc(C(C)(C)C)c(O)c(C(C)(C)C)c1 (centres unmarked) [Example 23] |  |  |  |
| > 50000 µg/mL | < 100 µg/mL | CCCCCCCCCCCCCCCCCCCC(O)C(Cc1cc(C(C)(C)C)c(O)c(C(C)(C)C)c1)C(=O)OCC (centres unmarked) [Example 24] |  |  |  |
| > 50000 µg/mL | < 100 µg/mL | CCCCCCCCCCCCCCCCCCCC(O)C(CO)Cc1cc(C(C)(C)C)c(O)c(C(C)(C)C)c1 (centres unmarked) [Example 25] |  |  |  |
| > 50000 µg/mL | < 100 µg/mL | CCCCCCCCCCCCCCCCCCCC1OC(C)(C)OCC1Cc1cc(C(C)(C)C)c(O)c(C(C)(C)C)c1 (centres unmarked) [Example 26] |  |  |  |
| > 1000 µg/mL | > 10000 µg/mL | CCCCCCCCCCCCCCCCCCCC(O)C(Cc1cc(C(C)(C)C)c(O)c(C(C)(C)C)c1)C(=O)O (centres unmarked) [Example 27] |  |  |  |
| > 50000 µg/mL | < 100 µg/mL | CCCCCCCCCCCCCCCCCCCC(=O)C(=Cc1cc(C(C)(C)C)c(O)c(C(C)(C)C)c1)C(=O)OCC [Example 28] |  |  |  |
| > 10000 µg/mL | > 10000 µg/mL | CCCCCCCCCCCCCCCCCCC(COCCOC1=C(O)C(C(O)CO)OC1=O)COCCOC1=C(O)C(C(O)CO)OC1=O (centres unmarked) [Example 36] | 17% |  | outstandingly suitable for use in aqueous oil emulsions |
| < 100 µg/mL | > 10000 µg/mL | O=C(O)c1cc(O)c(O)c(O)c1 [Gallic acid, reference compound] |  |  |  |

| Compound | solubility [1, 4] | solubility ([1]; water) | Reduction of thrombus formation [2] | color change of frying fat after the frying procedure [3] | suitability for use in aqueous oil emulsions owing to solubility properties [1] |
| --- | --- | --- | --- | --- | --- |
| CCCCCCCCCCCCCCCC(=O)OC[C@H](O)[C@H]1OC(=O)C(O)=C1O [Ascorbyl palmitate, reference compound] | > 100 µg/mL | < 100 µg/mL |  |  |  |
| Cc1c(C)c2c(c(C)c1O)CCC(C)(C(=O)NCCCNC(=O)CC[C@@H](C)[C@H]1CC[C@H]3[C@@H]4[C@H](O)C[C@@H]5C[C@H](O)CC[C@]5(C)[C@H]4C[C@H](O)[C@]13C)O2 (some centres unmarked) [Example 1] | > 10000 µg/mL | > 100 µg/mL | 16% |  |  |
| Cc1c(C)c2c(c(C)c1O)CCC(C)(C(=O)NCCO[C@H]1CC[C@@]3(C)[C@@H](C1)C[C@@H](O)[C@@H]1[C@@H]3C[C@H](O)[C@]3(C)[C@@H]([C@H](C)CCC(=O)O)CC[C@@H]13)O2 (some centres unmarked) [Example 3] | > 1000 µg/mL | < 100 µg/mL | 11% |  |  |
| CC(C)CCC[C@@H](C)[C@H]1CC[C@H]2[C@@H]3CC=C4C[C@@H](OCCOCc5cc(C(C)(C)C)c(O)c(C(C)(C)C)c5)CC[C@]4(C)[C@H]3CC[C@]12C [Example 13] | > 50000 µg/mL | < 100 µg/mL | 17% |  |  |
| CC(C)CCC[C@@H](C)[C@H]1CC[C@H]2[C@@H]3CC=C4C[C@@H](OCCOC5=C(O)[C@@H]([C@@H](O)CO)OC5=O)CC[C@]4(C)[C@H]3CC[C@]12C [Example 33] | > 1000 µg/mL | < 100 µg/mL | 13% |  |  |
| CCCCCCCCCCCCCCCCCC(=O)OC[C@H](O)[C@H]1OC(=O)C(OP(=O)(OCC)OCC)=C1O [Example 34] | > 1000 µg/mL | < 100 µg/mL |  |  |  |
| CCCCCCCCCCCCCCCCCC(=O)OC[C@H](OC(=O)CCCCCCCCCCCCCCCCC)[C@H]1OC(=O)C(OP(=O)(OCC)OCC)=C1O [Example 35] | > 1000 µg/mL | < 100 µg/mL |  |  |  |
| CCCCCCCCCCCCCCCCCCP(=O)(OC1=C(O)C([C@@H](O)CO)OC1=O)OC1=C(O)C([C@@H](O)CO)OC1=O (some centres unmarked) [Example 37] | > 1000 µg/mL | > 10000 µg/mL |  |  |  |
| CC(C)CCCC(C)C1CC[C@H]2C3CC=C4CC(OC(=O)CCCCC(S)CCS)CC[C@]4(C)[C@H]3CC[C@]12C (some centres unmarked) [Example 46] | > 50000 µg/mL | < 100 µg/mL |  |  |  |
| CC(CCC(=O)NCCCNC(=O)CCCCC(S)CCS)C1CC[C@H]2C3CC[C@@H]4C[C@H](O)CC[C@]4(C)[C@H]3C[C@H](O)[C@]12C (some centres unmarked) [Example 48] | > 50000 µg/mL | < 100 µg/mL |  |  |  |
| CC(C)CCCC(C)C1CC[C@H]2C3CC=C4CC(OC(=O)CCCCC5CCSS5)CC[C@]4(C)[C@H]3CC[C@]12C (some centres unmarked) [Example 53] | > 50000 µg/mL | < 100 µg/mL |  |  |  |
